Data reported in PubChem BioAssay (NCI).
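Method: 48-hour compound exposure of cells in 96-well plates, five concentrations, linear interpolation of endpoints. GI50 = concentration required for 50% inhibition of growth. The concentration for full growth arrest is given as TGI.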

Columns and labels:
Test in all cases: inhibition of tumour cell growth, NCI panel, 48 h
[1] = tested on: SNB-19 CNS
[2] = tested on: A498 renal
[3] = tested on: M14 melanoma
[4] = tested on: SF-539 CNS
[5] = tested on: SN12C renal
[6] = tested on: PC-3 prostate
[7] = tested on: HT29 colon
[8] = tested on: LOX IMVI melanoma
[9] = tested on: OVCAR-5 ovarian
[10] = tested on: HCT-15 colon

`CCOP(=O)(CCP(=O)(OCC)OCC)OCC.C[CH2][Sn]([Cl])([Cl])[CH2]C` showed a GI50 [1] of 31.2 µM, a TGI [1] of 49.9 µM and a GI50 [2] of 17.4 µM. It also gave a TGI [2] of 26 µM, a GI50 [3] of 41.4 µM and a TGI [3] of over 57.8 µM. It also gave a GI50 [4] of 34.9 µM, a TGI [4] of 52.1 µM and a GI50 [5] of 48.1 µM. For the same compound, the TGI [5] was over 69.8 µM, the GI50 [6] was over 100 µM and the TGI [6] was over 100 µM. The GI50 [7] was 62.7 µM, the TGI [7] was over 93.6 µM and the GI50 [8] was 22 µM. For the same compound, the TGI [8] was 47.9 µM, the GI50 [9] was 72 µM and the TGI [9] was over 100 µM. For the same compound, the GI50 [10] was 51.2 µM and the TGI [10] was over 78.7 µM.
`c1cncc(CNc2ccccc2-c2nnc(Nc3ccc4c(c3)OCO4)o2)c1` showed a GI50 [1] of 0.112 µM, a TGI [1] of over 100 µM and a GI50 [2] of 0.0199 µM. For the same compound, the TGI [2] was over 100 µM, the GI50 [3] was 0.056 µM and the TGI [3] was over 100 µM. It also gave a GI50 [4] of 0.0815 µM, a TGI [4] of 0.539 µM and a GI50 [5] of 0.0994 µM. For the same compound, the TGI [5] was over 100 µM, the GI50 [6] was 0.0898 µM and the TGI [6] was over 76.9 µM. It also gave a GI50 [7] of 0.037 µM, a TGI [7] of 1.27 µM and a GI50 [8] of 0.0547 µM. The TGI [8] was over 100 µM, the GI50 [9] was 0.347 µM and the TGI [9] was over 100 µM. The GI50 [10] was 0.0578 µM and the TGI [10] was over 100 µM.
For `COc1cc(CNC(=O)/C=C/C=C/c2ccc3c(c2)OCO3)ccc1OCc1cn(-c2ccc(Cl)c(Cl)c2)nn1`, the GI50 [1] was 2.5 µM, the TGI [1] was 12.4 µM and the GI50 [2] was 1.57 µM. The TGI [2] was 3.22 µM, the GI50 [3] was 0.982 µM and the TGI [3] was 2.39 µM. It also gave a GI50 [4] of 3.26 µM, a TGI [4] of 12.3 µM and a GI50 [5] of 1.82 µM. For the same compound, the TGI [5] was 4.93 µM, the GI50 [6] was 1.48 µM and the TGI [6] was 3.47 µM. For the same compound, the GI50 [7] was 2.49 µM, the TGI [7] was 8.18 µM and the GI50 [8] was 1.78 µM. The TGI [8] was 3.96 µM, the GI50 [9] was 1.77 µM and the TGI [9] was 3.99 µM. The GI50 [10] was 0.519 µM and the TGI [10] was 2.5 µM.
`Clc1ccc(-c2nc3c(-c4ccc(Cl)cc4)nc(-c4ccccc4)cn3c2-c2ccc(Cl)cc2)cc1` showed a GI50 [1] of over 50 µM, a TGI [1] of over 50 µM and a GI50 [2] of over 50 µM. The TGI [2] was over 50 µM, the GI50 [3] was over 50 µM and the TGI [3] was over 50 µM. It also gave a GI50 [4] of 21 µM, a TGI [4] of over 50 µM and a GI50 [5] of over 50 µM. The TGI [5] was over 50 µM, the GI50 [6] was over 50 µM and the TGI [6] was over 50 µM. It also gave a GI50 [7] of over 50 µM, a TGI [7] of over 50 µM and a GI50 [8] of over 50 µM. It also gave a TGI [8] of over 50 µM, a GI50 [9] of over 50 µM and a TGI [9] of over 50 µM. It also gave a GI50 [10] of over 50 µM and a TGI [10] of over 50 µM.
`COC(=O)[C@]12CC[C@@H](C)[C@H](C)[C@@H]1C1=CC[C@@H]3[C@@]4(C)C[C@@H](OC(=O)c5ccco5)[C@H](O)[C@@](C)(CO)[C@@H]4[C@H](O)C[C@@]3(C)[C@]1(C)CC2` showed a GI50 [1] of 3.47 µM, a TGI [1] of 15 µM and a GI50 [2] of 2.5 µM. For the same compound, the TGI [2] was 7.75 µM, the GI50 [3] was 2.26 µM and the TGI [3] was 4.74 µM. For the same compound, the GI50 [4] was 2.28 µM, the TGI [4] was 5.17 µM and the GI50 [6] was 2.6 µM. The TGI [6] was 6.73 µM, the GI50 [7] was 1.8 µM and the TGI [7] was 3.41 µM. It also gave a GI50 [8] of 1.68 µM, a TGI [8] of 3.1 µM and a GI50 [9] of 2.13 µM. The TGI [9] was 5.51 µM, the GI50 [10] was 1.84 µM and the TGI [10] was 3.89 µM.
`COC1=C(OC)C(=O)C(/C=C(\C)C(=O)O)=C(C)C1=O` was tested, and the GI50 [1] was over 100 µM, the TGI [1] was over 100 µM and the GI50 [2] was over 100 µM. The TGI [2] was over 100 µM, the GI50 [3] was over 100 µM and the TGI [3] was over 100 µM. It also gave a GI50 [4] of over 100 µM, a TGI [4] of over 100 µM and a GI50 [5] of over 100 µM. It also gave a TGI [5] of over 100 µM, a GI50 [6] of over 100 µM and a TGI [6] of over 100 µM. It also gave a GI50 [7] of over 100 µM, a TGI [7] of over 100 µM and a GI50 [8] of over 100 µM. It also gave a TGI [8] of over 100 µM, a GI50 [9] of over 100 µM and a TGI [9] of over 100 µM. The GI50 [10] was over 100 µM and the TGI [10] was over 100 µM.
